“And” between values parts separate entries of the source, which are not always exact repeats. Equal entries are not always repeated. Inconclusive results and toxic doses are left out.

The assay concerns BDF1 mice, B16 melanoma ip, median survival T/C. Briefly: NCI In Vivo Anticancer Drug Screen. Data for tumor model B16 Melanoma (intraperitoneal) in B6D2F1 (BDF1) mice. To be noted: endpoint: median survival time, higher = longer survival. The method, boiled down:
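Each result divides a survival or tumor-size measurement in the compound-treated group by the same measurement in the vehicle group.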

Setting [1] is: dose: 25.0 mg/kg/injection, schedule: Q04DX003 (ip), vehicle: saline.
The mark [2] stands for this setting: dose: 50.0 mg/kg/injection, schedule: Q01DX009 (ip), vehicle: Klucel (hydroxypropylcellulose) (HPC).
Where [3] appears, read: dose: 100.0 mg/kg/injection, schedule: Q01DX009 (ip), vehicle: Klucel (hydroxypropylcellulose) (HPC).
Where [4] appears, read: dose: 2.5 mg/kg/injection, schedule: Q01DX009 (ip), vehicle: saline with Tween-80.
Setting [5] is: dose: 10.0 mg/kg/injection, schedule: Q01DX009 (ip), vehicle: saline with Tween-80.
The mark [6] stands for this setting: dose: 12.5 mg/kg/injection, schedule: Q01DX009 (ip), vehicle: saline with Tween-80.
Where [7] appears, read: dose: 25.0 mg/kg/injection, schedule: Q01DX009 (ip), vehicle: saline with Tween-80.
[8] abbreviates: dose: 50.0 mg/kg/injection, schedule: Q01DX009 (ip), vehicle: saline with Tween-80.
Setting [9] is: dose: 100.0 mg/kg/injection, schedule: Q01DX009 (ip), vehicle: saline with Tween-80.
Where [10] appears, read: dose: 25.0 mg/kg/injection, schedule: Q01DX009 (ip), vehicle: saline.
The mark [11] stands for this setting: dose: 50.0 mg/kg/injection, schedule: Q01DX009 (ip), vehicle: saline.
[12] abbreviates: dose: 200.0 mg/kg/injection, schedule: Q01DX009 (ip), vehicle: Klucel (hydroxypropylcellulose) (HPC).
Where [13] appears, read: dose: 400.0 mg/kg/injection, schedule: Q01DX009 (ip), vehicle: Klucel (hydroxypropylcellulose) (HPC).

For `O=C1C=CC(=O)O1` (tested in a mixture with another compound), the T/C by setting is: (dose: 12.5 mg/kg/injection, schedule: Q01DX009 (ip), vehicle: Klucel (hydroxypropylcellulose) (HPC)) 124 % of control; (dose: 12.5 mg/kg/injection, schedule: Q04DX003 (ip), vehicle: saline) 111 % of control; (dose: 18.75 mg/kg/injection, schedule: Q04DX003 (ip), vehicle: Klucel (hydroxypropylcellulose) (HPC)) 97 % of control; under setting [1], 96 % of control and 121 % of control; (dose: 37.5 mg/kg/injection, schedule: Q04DX003 (ip), vehicle: Klucel (hydroxypropylcellulose) (HPC)) 150 % of control; under setting [2], 159 % of control. The T/C is, setting by setting: (dose: 50.0 mg/kg/injection, schedule: Q04DX003 (ip), vehicle: saline) 120 % of control and 121 % of control; (dose: 75.0 mg/kg/injection, schedule: Q04DX003 (ip), vehicle: Klucel (hydroxypropylcellulose) (HPC)) 161 % of control; under setting [3], 150 % of control; (dose: 150.0 mg/kg/injection, schedule: Q04DX003 (ip), vehicle: Klucel (hydroxypropylcellulose) (HPC)) 108 % of control and 208 % of control; (dose: 200.0 mg/kg/injection, schedule: Q01DX009 (ip), vehicle: other) 104 % of control; (dose: 300.0 mg/kg/injection, schedule: Q04DX003 (ip), vehicle: Klucel (hydroxypropylcellulose) (HPC)) 152 % of control and 184 % of control. Besides, the T/C (dose: 400.0 mg/kg/injection, schedule: Q04DX003 (ip), vehicle: saline) was 101 % of control.
Consider `CCCCCCCCCCCCCCCCCCNC(=O)Oc1ccc(Cl)c(C)c1`, for which the T/C was 88 % of control (dose: 100.0 mg/kg/injection, schedule: Q04DX003 (ip), vehicle: gum acacia) and 90 % of control (dose: 200.0 mg/kg/injection, schedule: Q04DX003 (ip), vehicle: gum acacia).
As for `CCN1/C(=C/C=C/C=C\C=C\c2sc3ccc4ccccc4c3[n+]2CC)Sc2ccc3ccccc3c21`, the T/C is, setting by setting: under setting [4], 87 % of control; under setting [5], 115 % of control; (dose: 20.0 mg/kg/injection, schedule: Q01DX009 (ip), vehicle: saline with Tween-80) 96 % of control.
As to `CC12CC3OC(=O)C1COC14OC5(C2C1=O)C(O)(CCC1C4CC(O)C2(O)CC=CC(=O)C12C)C(=O)OC35C` (centres undefined), the T/C by setting is: (dose: 3.0 mg/kg/injection, schedule: Q01DX009 (ip), vehicle: Klucel (hydroxypropylcellulose) (HPC)) 120 % of control; (dose: 6.0 mg/kg/injection, schedule: Q01DX009 (ip), vehicle: Klucel (hydroxypropylcellulose) (HPC)) 98 % of control and 124 % of control; (dose: 12.0 mg/kg/injection, schedule: Q01DX009 (ip), vehicle: Klucel (hydroxypropylcellulose) (HPC)) 110 % of control and 118 % of control; (dose: 24.0 mg/kg/injection, schedule: Q01DX009 (ip), vehicle: Klucel (hydroxypropylcellulose) (HPC)) 113 % of control and 120 % of control; (dose: 48.0 mg/kg/injection, schedule: Q01DX009 (ip), vehicle: Klucel (hydroxypropylcellulose) (HPC)) 120 % of control.
As to `CN(C)c1ccc(N=C2C=CC(=O)C=C2)cc1`, the T/C by setting is: (dose: 1.5 mg/kg/injection, schedule: Q01DX009 (ip), vehicle: saline) 111 % of control; (dose: 3.0 mg/kg/injection, schedule: Q01DX009 (ip), vehicle: saline) 98 % of control; (dose: 6.0 mg/kg/injection, schedule: Q01DX009 (ip), vehicle: saline) 105 % of control.
On to `O=C1C=C(C2CCCCC2)C(=O)c2ccccc21`, for which the T/C is 106 % of control under setting [6], 101 % of control under setting [7], 92 % of control under setting [8] and 92 % of control under setting [9].
For `CNCCN(C)CCNC`, the T/C under setting [10] was 98 % of control; the T/C under setting [11] was 89 % of control; the T/C (dose: 100.0 mg/kg/injection, schedule: Q01DX009 (ip), vehicle: saline) is 95 % of control.
Turning to `CN(C)N=C1CCCC1`, the T/C reads like this: (dose: 16.5 mg/kg/injection, schedule: Q04DX003 (ip), vehicle: saline) 107 % of control; under setting [1], 115 % of control; (dose: 37.5 mg/kg/injection, schedule: Q04DX003 (ip), vehicle: saline) 112 % of control.
Regarding `CCOC(=O)C(Cc1ccc(Cl)cc1)(Cc1ccc(Cl)cc1)C(=O)OCC`, the T/C is 106 % of control under setting [3], 100 % of control under setting [12] and 93 % of control under setting [13].
Turning to `C[C@]12CC[C@H](OC(=O)COc3ccc(N(CCCl)CCCl)cc3)C[C@@H]1CC[C@@H]1[C@@H]2CC[C@]2(C)NC(=O)CC[C@@H]12`, the T/C was 111 % of control (dose: 4.0 mg/kg/injection, schedule: Q01DX009 (ip), vehicle: saline with Tween-80) and 109 % of control (dose: 32.0 mg/kg/injection, schedule: Q01DX009 (ip), vehicle: saline with Tween-80).
For the compound `CC(Cc1ccccc1)NC1CC2CCC1C2` (centres undefined), the T/C was 101 % of control (dose: 12.5 mg/kg/injection, schedule: Q01DX009 (ip), vehicle: saline); 102 % of control under setting [10]; 101 % of control under setting [11].
With `C[C@]12CCC(=O)C=C1CC[C@@H]1[C@@H]2C(=O)C[C@@]2(C)[C@H]1CC[C@]2(O)C(=O)CO`, the T/C is 100 % of control (dose: 40.0 mg/kg/injection, schedule: Q02DX009 (ip), vehicle: Klucel (hydroxypropylcellulose) (HPC)); 112 % of control (dose: 80.0 mg/kg/injection, schedule: Q02DX009 (ip), vehicle: Klucel (hydroxypropylcellulose) (HPC)); 97 % of control (dose: 160.0 mg/kg/injection, schedule: Q02DX009 (ip), vehicle: Klucel (hydroxypropylcellulose) (HPC)); 97 % of control (dose: 640.0 mg/kg/injection, schedule: Q02DX009 (ip), vehicle: Klucel (hydroxypropylcellulose) (HPC)).
As to `C=C(CCC(C(=O)O)C1CCC2(C)C3=C(CCC12C)C1(C)CCC(O)C(C)(C)C1CC3)C(C)C` (centres undefined), the T/C reads like this: (dose: 20.0 mg/kg/injection, schedule: Q01DX009 (sc), vehicle: steriod suspending solution) 98 % of control; (dose: 40.0 mg/kg/injection, schedule: Q01DX009 (sc), vehicle: steriod suspending solution) 105 % of control; (dose: 80.0 mg/kg/injection, schedule: Q01DX009 (sc), vehicle: steriod suspending solution) 101 % of control; (dose: 160.0 mg/kg/injection, schedule: Q01DX009 (sc), vehicle: steriod suspending solution) 92 % of control; (dose: 165.0 mg/kg/injection, schedule: Q01DX009 (sc), vehicle: steriod suspending solution) 94 % of control; (dose: 250.0 mg/kg/injection, schedule: Q01DX009 (sc), vehicle: steriod suspending solution) 102 % of control.
Consider `Cc1c(Cl)cccc1N=Cc1ccccc1O`, for which the T/C runs as follows: under setting [2], 106 % of control; under setting [3], 108 % of control; under setting [12], 97 % of control.
Turning to `CNC(=O)Nc1nccs1`, the T/C is 97 % of control under setting [7]; 95 % of control under setting [8]; 106 % of control under setting [9]; 91 % of control (dose: 200.0 mg/kg/injection, schedule: Q01DX009 (ip), vehicle: saline with Tween-80).
For the compound `O=C1C=C[C@H](O)[C@@]2(CO)O[C@@H]12`, the T/C (dose: 1.25 mg/kg/injection, schedule: Q01DX009 (ip), vehicle: saline with Tween-80) was 101 % of control; the T/C under setting [4] was 101 % of control; the T/C (dose: 5.0 mg/kg/injection, schedule: Q01DX009 (ip), vehicle: saline with Tween-80) is 122 % of control; the T/C under setting [5] was 104 % of control.
On to `NC(=S)N/N=C/c1cccc(CC(O)(C(F)(F)F)C(F)(F)F)n1`, for which the T/C is 95 % of control (dose: 6.25 mg/kg/injection, schedule: Q01DX009 (ip), vehicle: saline with Tween-80); 116 % of control (dose: 6.25 mg/kg/injection, schedule: Q04DX003 (ip), vehicle: saline with Tween-80); 90 % of control under setting [6]; 116 % of control (dose: 12.5 mg/kg/injection, schedule: Q04DX003 (ip), vehicle: saline with Tween-80); 88 % of control under setting [7]; 100 % of control (dose: 25.0 mg/kg/injection, schedule: Q04DX003 (ip), vehicle: saline with Tween-80).
Take `CC(CC(O)c1ccccc1)c1ccccc1` (centres undefined): the T/C runs as follows: under setting [3], 102 % of control; under setting [12], 100 % of control; under setting [13], 92 % of control.
